This assay has as its target T1, Human V2 Vasopressin Receptor (Homo sapiens, UniProt P30518).
T1 construct: expressed in transfected cells; host or cells: mouse fibroblast cell line LV-2
Kind of assay: Binding to Membranes of Mouse Fibroblast Cell Line (LV-2) Transfected with the cDNA Expressing the Human V2 Vasopressin Receptor. The note with it: LV-2 cell membranes, human V2; read-out: V2 IC50 (**).

T1 sequence (P30518 whole entry): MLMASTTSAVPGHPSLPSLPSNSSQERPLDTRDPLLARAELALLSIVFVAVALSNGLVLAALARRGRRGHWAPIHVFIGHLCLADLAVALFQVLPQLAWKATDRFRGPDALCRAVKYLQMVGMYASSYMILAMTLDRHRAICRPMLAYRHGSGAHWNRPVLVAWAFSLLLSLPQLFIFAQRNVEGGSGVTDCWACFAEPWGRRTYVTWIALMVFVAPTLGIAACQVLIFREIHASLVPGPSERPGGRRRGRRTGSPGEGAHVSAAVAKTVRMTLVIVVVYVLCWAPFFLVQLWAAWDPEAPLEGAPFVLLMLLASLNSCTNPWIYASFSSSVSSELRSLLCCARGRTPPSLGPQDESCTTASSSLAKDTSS

One may read the IC50 as the midpoint of a concentration-inhibition curve. As for `O=C(Nc1ccc(C(=O)N2Cc3cccn3Cc3sccc32)cc1)c1ccc(Cl)cc1Cl` [Example 274, N-(4-(5H-pyrrolo[1,2-a]thieno-[3,2-e][1,4]diazepin-4(10H)-ylcarbonyl)phenyl]-2,4-dichloro-benzamide], the IC50 was found to be 31 nM.

As for `Cc1cccc(C(=O)Nc2ccc(C(=O)N3Cc4cccn4Cc4ccccc43)c(Cl)c2)c1C` [Example 525, N-[4-(5H-pyrrolo[2,1-c][1,4]benzodiazepin-10(11H)-ylcarbonyl]-3-chlorophenyl]-2,3-dimethylbenzamide], the 50% inhibitory concentration (IC50) is 0.42 nM.

Take `COc1cc(C(=O)N2Cc3cccn3Cc3ccccc32)ccc1NC(=O)c1ccc(Cl)cc1Cl` [Example 478, N-[4-(5H-pyrrolo[2,1-c][1,4]benzodiazepin-10(11H)-ylcarbonyl)-2-methoxy-phenyl]-2,4-dichlorobenzamide]: the IC50 worked out at 1.9 nM.

Regarding `O=C(Nc1ccc(C(=O)N2Cc3cccn3Cc3ccccc32)c(Cl)c1)c1ccccc1C(F)(F)F` [Example 528, N-[4-(5H-pyrrolo[2,1-c][1,4]benzodiazepin-10(11H)-ylcarbonyl]-3-chlorophenyl]-2-(trifluoromethyl)benzamide], the concentration for half-maximal inhibition (IC50) worked out at 6 nM.

In the case of `O=C(Nc1ccc(C(=O)N2Cc3cccn3Cc3ccccc32)cc1)c1cc([N+](=O)[O-])ccc1Cl` [Example 480, N-[4-(5H-pyrrolo[2,1-c][1,4]benzodiazepin-10(11H)-ylcarbonyl)phenyl]-2-chloro-5-nitrobenzamide], the IC50 stood at 26 nM.

Consider `O=C(Nc1ccc(C(=O)N2Cc3cccn3Cc3ccccc32)c(Cl)c1)c1ccc(F)cc1Cl` [Example 527, N-[4-(5H-pyrrolo[2,1-c][1,4]benzodiazepin-10(11H)-ylcarbonyl]-3-chlorophenyl]-4-fluoro-2-chlorobenzamide], for which the IC50 is 0.67 nM.

For `O=C(Nc1ccc(C(=O)N2Cc3ccnn3Cc3ccccc32)cc1)c1ccc(Cl)cc1Cl` [Example 217, N-[4-(4H-Pyrazolo[5,1-c][1,4]benzo-diazepin-5(10H)-ylcarbonyl)phenyl]-2,4-dichlorobenzamide], the IC50 is 10 nM.

In the case of `COc1cc(C(=O)N2Cc3cccn3Cc3ccccc32)ccc1NC(=O)c1ccccc1C` [Example 477, N-[4-(5H-pyrrolo[2,1-c][1,4]benzodiazepin-10(11H)-ylcarbonyl)-2-methoxy-phenyl]-2-methylbenzamide], the IC50 was 3.2 nM.

The values are drawn from US5624923A, “Tricyclic diazepine vasopressin antagonists and oxytocin antagonists” (priority 1995, dated 1997).
